Columns and labels:
[1] = target: T1, SCD1 (Mus musculus, UniProt P13516); assay: Tritium release assay of SCD1 activity, mouse liver; type: biochemical; details: liver expresses CYP4F11
T1 construct: tissue derived from mouse liver and preputial gland was independently exposed; from tissue; host or cells: mouse liver
Description: FIGS. 10A-10F. Sensitive cells express high levels of CYP4 family members. FIG. 10A. relative expression levels of mRNA for a panel of cytochrome P450 enzymes from the cancer cell line encyclopedia (CCLE, http://www.broadinstitute.org/ccle) showing CYP4F11 in particular is highly expressed in 4 NSCLC lines that are sensitive to SCD1 inhibition. FIG. 10B. Western blot showing that CYP4F11 protein is expressed in all sensitive cell lines but not in the majority of insensitive cell lines. FIG. 10C. […] FIG. 10D. Cells were incubated with either a methoxy-containing oxalamide, which represents the pro-drug form, or the hydroxy containing oxalamide, which represents the active form of the drug. […] FIG. 10E. 293t cells were transfected with mammalian expression plasmids containing SCD1 or CYP4F11 as indicated. Cells were treated with either SW208108 or its demethylated congener, SW211666, and conjugated with a fluorescent dye as described in FIG. 7. Cells containing CYP4F11 form covalent adducts with both the pro-drug (methoxy) and drug form (demethylated, i.e. OH). […] FIG. 10F. Shown are the results of a tritium release assay in which tritiated water is produced from tritiated stearoyl CoA by the action of SCD1. […] By contrast, SW211666 but not SW208108 inhibits SCD1 in mouse preputial gland, which lacks CYP4F11 (bottom). […]

[2] = target: T2, HMOX2 (Homo sapiens, UniProt P30519); assay: HMOX2 activity in H2122 cell homogenate (bilirubin production); type: biochemical
T2 construct: endogenous in cells; host or cells: H2122 cells (homogenate / lysate)
Procedure: FIG. 7N. Oxalamide inhibits the activity of HMOX2 in vitro. H2122 cell homogenate was incubated with varying concentrations of SW208108 in the presence of excess NADPH, NADPH cytochrome reductase, and biliverdin reductase. The samples were extracted with chloroform and absorbance was measured at 450 nm refecting bilirubin production.
(§1) However, when HO2 was knocked out from H2122 cells using Crisper technology (FIG. 7O), no toxicity was observed, and SW208108 and related compounds retained toxicity towards H2122 cells (FIG. 7P). We conclude that HO2 is not required for cell survival or for the cytotoxicity of the selective toxins.

[3] = tested on: H2122 cells; assay: Lipid ratios in H2122 cells by MS/MS; type: cell-based, human; details: 100 nM, within 6 hours
Procedure: FIG. 8A. Covalent binders of SCD1 affect lipid ratios in human cancer cells. H2122 cells were treated with 100 nM SW208108 for the indicated times before a lipid extraction was performed. Lipid extracts were analyzed by MS/MS in order to determine the fractional content of 8 different lipid species including triacylglycerols (TAG) and diacylglycerols (DAG). In MS/1, the total number of carbons and number of unsaturated bonds was determined for all of the fatty acid chains. For example, TAG (50:3) is a triacylglycerol with 3 fatty acid chains that all together have 50 carbons and 3 unsaturated bonds. The mass for one of these fatty acids was determined in MS/2 and is listed as noted by its carbon length and unsaturated bond number using the same notation.
SCD1 catalyzes the dehydrogenation of saturated fatty acid-CoA's to form unsaturated fatty acid-CoA's. For example, the enzyme gets its name from the conversion of stearic acid-CoA to oleic acid-CoA. For this reason, inhibition SCD1 was expected to alter the ratio of saturated:unsaturated fatty acids.

[4] = tested on: H2122 clones; assay: Toxicity to H2122 clones with loss of HMOX2; type: cell-based, human
Procedure: FIG. 7O. H2122 cells were engineered to have homozygous or heterozygous loss of HMOX2. hCas9 and guide RNA's targeting HMOX2 were co-expressed in H2122 cells and then cells were individually cloned. Individual clones were raised and analyzed for HMOX2 expression.
FIG. 7P. HMOX2 loss has no impact on the sensitivity of cells to SW208108. A dose response curve assaying the toxicity of SW208108 to H2122 clones identified in FIG. 7O was determined. There is no correlation between HMOX2 expression and SW208108 potency.
as §1

[5] = target: T3, SCD1 (Homo sapiens, UniProt O00767); assay: Immunoprecipitation of SW208108-bound protein with anti-SCD1; type: binding; design: The fluorescent bands confirm that p30 and p37 represent isoforms of SCD1; endogenous in cells; host or cells: H2122 cells
T3 sequence (O00767 1-359): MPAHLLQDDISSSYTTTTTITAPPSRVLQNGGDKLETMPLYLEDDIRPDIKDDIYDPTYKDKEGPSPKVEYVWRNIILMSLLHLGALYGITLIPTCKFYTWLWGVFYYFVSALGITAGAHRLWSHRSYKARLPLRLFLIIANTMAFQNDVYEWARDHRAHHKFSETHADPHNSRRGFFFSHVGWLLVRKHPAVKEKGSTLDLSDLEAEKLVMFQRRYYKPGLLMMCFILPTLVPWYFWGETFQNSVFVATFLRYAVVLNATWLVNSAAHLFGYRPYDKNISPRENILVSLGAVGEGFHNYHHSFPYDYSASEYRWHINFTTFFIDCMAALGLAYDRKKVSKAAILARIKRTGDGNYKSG
Procedure: FIG. 7L. Antibodies against SCD1 (Pierce) immunoprecipitate SW208108-bound protein. Samples were prepared as in FIG. 7A, and immunoprecipitated with either anti-SCD1 or IgG. The fluorescent bands confirm that p30 and p37 represent isoforms of SCD1.
SCD1 is the functional target of the oxalamides, benzothiazoles, chromones, and related derivatives. Covalent binding of SW208108 to SCD1 was confirmed by incubating cells in the presence of SW208108, lysing them, immunoprecipitating with antibodies to SCD1, and then clicking drug-bound proteins to a dye.

T2 sequence (P30519 whole entry): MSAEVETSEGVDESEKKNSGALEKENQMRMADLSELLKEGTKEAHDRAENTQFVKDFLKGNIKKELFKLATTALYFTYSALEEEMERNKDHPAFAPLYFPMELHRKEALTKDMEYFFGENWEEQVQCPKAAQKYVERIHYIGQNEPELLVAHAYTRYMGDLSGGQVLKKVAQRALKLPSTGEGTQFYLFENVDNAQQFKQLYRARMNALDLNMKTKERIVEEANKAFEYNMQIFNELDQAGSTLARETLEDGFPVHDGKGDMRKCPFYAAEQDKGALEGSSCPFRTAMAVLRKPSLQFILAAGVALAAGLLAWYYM
T1 sequence (P13516 whole entry): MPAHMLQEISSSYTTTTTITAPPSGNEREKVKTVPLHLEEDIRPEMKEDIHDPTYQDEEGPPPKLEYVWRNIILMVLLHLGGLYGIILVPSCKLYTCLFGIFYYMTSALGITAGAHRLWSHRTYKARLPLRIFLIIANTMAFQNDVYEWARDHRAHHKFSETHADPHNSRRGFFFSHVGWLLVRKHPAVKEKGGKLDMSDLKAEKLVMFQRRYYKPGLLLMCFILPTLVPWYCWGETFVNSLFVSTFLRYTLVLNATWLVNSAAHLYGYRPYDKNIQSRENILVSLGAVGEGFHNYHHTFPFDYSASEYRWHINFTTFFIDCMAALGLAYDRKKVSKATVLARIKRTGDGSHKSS

## C#CCOc1ccc(C(=O)c2ccc(NC(=O)C(=O)NCCc3ccc(OC)cc3)cc2)cc1 [SW208108]
[1]
  inhibition of SCD1 activity in mouse liver tissue: only inhibited SCD1 activity in the liver
[2]
  activity of HMOX2 in vitro: inhibits
[3]
  saturated vs unsaturated fatty acids in neutral lipids: increased the percentage of neutral lipids containing saturated fatty acids
[4]
  impact of HMOX2 loss on sensitivity of H2122 clones: no impact
[5]
  covalent binding to SCD1 (immunoprecipitation): confirmed
